Test results published in patent US8198311B2, “Modulators of glucocorticoid receptor, AP-1, and/or NF-κB activity and use thereof” (Bristol-Myers Squibb Company, priority 2006, dated 2012).
Read-outs that look alike come from different tables or passages of the source.

Legend:
[1] = biological target: T1, human full-length glucocorticoid receptor (Homo sapiens, UniProt P04150); experiment: Glucocorticoid Receptor Binding Assay (II), fluorescence polarization competitor kit (Fluormone GS1); conditions: cell lysate with recombinant human full-length GR
T1 construct: recombinantly expressed human full-length glucocorticoid receptor; purchased PanVera Co., Madison, Wis; P2816
T1 sequence (P04150 1-777): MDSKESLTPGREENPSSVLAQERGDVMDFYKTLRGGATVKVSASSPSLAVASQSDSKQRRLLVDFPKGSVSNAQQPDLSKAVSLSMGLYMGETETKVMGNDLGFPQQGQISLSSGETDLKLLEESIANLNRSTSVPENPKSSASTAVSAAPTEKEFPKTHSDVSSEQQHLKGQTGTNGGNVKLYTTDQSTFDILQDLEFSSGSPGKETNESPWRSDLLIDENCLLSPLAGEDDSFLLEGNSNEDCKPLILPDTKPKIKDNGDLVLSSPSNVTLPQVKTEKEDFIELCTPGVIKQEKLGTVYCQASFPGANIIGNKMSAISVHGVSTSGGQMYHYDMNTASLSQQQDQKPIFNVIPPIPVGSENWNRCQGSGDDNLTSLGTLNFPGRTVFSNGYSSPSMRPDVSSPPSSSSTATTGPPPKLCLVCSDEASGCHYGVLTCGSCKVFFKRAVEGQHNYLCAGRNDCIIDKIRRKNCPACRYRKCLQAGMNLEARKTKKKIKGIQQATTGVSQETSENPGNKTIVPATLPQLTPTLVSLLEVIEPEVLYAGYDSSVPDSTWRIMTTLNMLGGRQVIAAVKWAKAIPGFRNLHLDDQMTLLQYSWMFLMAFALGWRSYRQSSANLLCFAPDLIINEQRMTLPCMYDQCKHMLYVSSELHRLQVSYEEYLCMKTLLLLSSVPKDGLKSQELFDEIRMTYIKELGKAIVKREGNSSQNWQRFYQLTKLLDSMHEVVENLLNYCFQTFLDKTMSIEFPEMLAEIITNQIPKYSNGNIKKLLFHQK
Protocol: In order to measure the binding of compounds on the glucocorticoid receptor a commercially available kit was used (Glucocorticoid receptor competitor assay kit, PanVera Co., Madison, Wis., P2816). Briefly, a cell lysate containing recombinantly expressed human full-length glucocorticoid receptor was mixed with a fluorescently labeled glucocorticoid (1 nM Fluormone GS1) in the presence or absence of test compound. After one hour at room temperature, the fluorescence polarization (FP) of the samples were measured. […] Test molecules were analyzed in the concentration range from 2.4 nM to 40 microMolar.

[2] = tested on: AP-1 induced transcriptional activity; experiment: Cellular Transrepressional Assay (AP-1 luciferase reporter in A549 cells, PMA-activated); format: cell-based; conditions: pAP-1-Luc, 10 ng/ml PMA, read-out: AP-1 (EC50, nM) (Cellular Transrepression Assay)
In short: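 A549 cells stably carrying a 7×AP-1-luciferase reporter, stimulated with 10 ng/ml PMA with or without compound (0.1 nM-40 μM) for 7 h. Luciferase luminescence read 10 min after reagent addition; repression is percentage decrease of PMA-alone signal, EC50 by curve fitting.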

[3] = biological target: T2, human glucocorticoid receptor (Homo sapiens, UniProt P04150); experiment: Glucocorticoid Receptor Binding Assay (I), fluorescence polarization competitor kit (Fluormone GS Red); conditions: purified human recombinant full-length GR
T2 construct: purified human recombinant full-length glucocorticoid receptor (2 nM); purchased Invitrogen Part # 2893
T2 sequence (P04150 1-777): T1 sequence (P04150 1-777)
In short: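 Fluorescence polarization competition: full-length recombinant human GR (2 nM) incubated with 1 nM Fluormone GS Red plus test compound (8.5E-05 to 5 μM) for 2 h at room temperature in the dark before FP read-out.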

Row | Ki [1] | EC50 ([2]; Homo sapiens, A549, 7 h) | EC50 ([2]; 7 hours) | Ki [3] | SMILES
1 | 16 nM | > 10000 nM |  |  | CC(C)(C(c1ccccc1)c1ccc2c(cnn2-c2ccc(F)cc2)c1)C(C)(O)C(F)(F)F (mixture of isomers) [Example 128, 1,1,1-Trifluoro-4-(1-(4-fluorophenyl)-1H-indazol-5-yl)-2,3,3-trimethyl-4-phenylbutan-2-ol]
2 | 59 nM | > 10000 nM |  |  | CC(C)CC(c1ccc2c(cnn2-c2ccc(F)cc2)c1)C(C)(C)CNS(=O)(=O)CC(F)(F)F (single isomer, unassigned) [Example 57A, 2,2,2-trifluoro-N-(3-(1-(4-fluorophenyl)-1H-indazol-5-yl)-2,2,5-trimethylhexyl)-ethanesulfonamide]
3 | 15 nM |  | > 10000 nM |  | CC(C)CC(c1ccc2c(cnn2-c2ccc(F)cc2)c1)C(C)(C)CNS(=O)(=O)CC(F)(F)F (single isomer, unassigned) [Example 57B, 2,2,2-trifluoro-N-(3-(1-(4-fluorophenyl)-1H-indazol-5-yl)-2,2,5-trimethylhexyl)-ethanesulfonamide]
4 | 14 nM |  | > 10000 nM |  | CC(C)CC(c1ccc2c(cnn2-c2ccc(F)cc2)c1)C(C)(C)CNC(=O)NCC(F)(F)F (single isomer, unassigned) [Example 58A, 1-(3-(1-(4-fluorophenyl)-1H-indazol-5-yl)-2,2,5-trimethylhexyl)-3-(2,2,2-trifluoroethyl)urea]
5 | 8.8 nM |  | 106 nM |  | CC(C)CC(c1ccc2c(cnn2-c2ccc(F)cc2)c1)C(C)(C)CNC(=O)NCC(F)(F)F (single isomer, unassigned) [Example 58B, 1-(3-(1-(4-fluorophenyl)-1H-indazol-5-yl)-2,2,5-trimethylhexyl)-3-(2,2,2-trifluoroethyl)urea]
6 | 9.3 nM | > 10000 nM |  |  | CC(C)CC(c1ccc2c(cnn2-c2ccc(F)cc2)c1)C(C)(C)CNC(=O)CC(F)(F)F (single isomer, unassigned) [Example 59B, 3,3,3-trifluoro-N-(3-(1-(4-fluorophenyl)-1H-indazol-5-yl)-2,2,5-trimethylhexyl)propanamide]
7 | 1.4 nM |  |  |  | CC(C)CC(c1ccc2c(cnn2-c2ccc(F)cc2)c1)C(C)(C)CNC(=O)N(C)C (stereo not drawn) [Example 65, 3-(3-(1-(4-fluorophenyl)-1H-indazol-5-yl)-2,2,5-trimethylhexyl)-1,1-dimethylurea]
8 |  | 5.6 nM |  | 0.92 nM | CCS(=O)(=O)NCC(C)C(c1ccccc1)c1ccc2c(cnn2-c2ccc(F)cc2)c1 (stereo not drawn) [Example 93, N-(3-(1-(4-fluorophenyl)-1H-indazol-5-yl)-2-methyl-3-phenylpropyl)ethanesulfonamide]
9 |  | 12 nM |  | 0.73 nM | CC(CNS(=O)(=O)C(C)C)C(c1ccccc1)c1ccc2c(cnn2-c2ccc(F)cc2)c1 (stereo not drawn) [Example 94, N-(3-(1-(4-fluorophenyl)-1H-indazol-5-yl)-2-methyl-3-phenylpropyl)propane-2-sulfonamide]
10 |  | 27 nM |  | 1.2 nM | CCCS(=O)(=O)NCC(C)C(c1ccccc1)c1ccc2c(cnn2-c2ccc(F)cc2)c1 (stereo not drawn) [Example 95, N-(3-(1-(4-fluorophenyl)-1H-indazol-5-yl)-2-methyl-3-phenylpropyl)propane-1-sulfonamide]
11 |  | 58 nM |  | 1.6 nM | CC(CNS(=O)(=O)CCC(F)(F)F)C(c1ccccc1)c1ccc2c(cnn2-c2ccc(F)cc2)c1 (stereo not drawn) [Example 96, 3,3,3-trifluoro-N-(3-(1-(4-fluorophenyl)-1H-indazol-5-yl)-2-methyl-3-phenylpropyl)propane-1-sulfonamide]
12 |  | 17 nM |  | 3.7 nM | CCC(CNS(=O)(=O)CC(F)(F)F)C(c1ccccc1)c1ccc2c(cnn2-c2ccc(F)cc2)c1 (stereo not drawn) [Example 98, 2,2,2-Trifluoro-N-(2-((1-(4-fluorophenyl)-1H-indazol-5-yl)(phenyl)methyl)butyl)ethanesulfonamide]
13 |  | 40 nM |  | 6.1 nM | CCCC(CNS(=O)(=O)CC(F)(F)F)C(c1ccccc1)c1ccc2c(cnn2-c2ccc(F)cc2)c1 (stereo not drawn) [Example 99, 2,2,2-Trifluoro-N-(2-((1-(4-fluorophenyl)-1H-indazol-5-yl)(phenyl)methyl)pentyl)ethanesulfonamide]
14 |  | 5000 nM |  | 18.3 nM | O=S(=O)(CC(F)(F)F)NCC(c1ccccc1)C(c1ccccc1)c1ccc2c(cnn2-c2ccc(F)cc2)c1 (stereo not drawn) [Example 100, 2,2,2-Trifluoro-N-(3-(1-(4-fluorophenyl)-1H-indazol-5-yl)-2,3-diphenylpropyl)ethanesulfonamide]
15 |  | 132 nM |  | 2.1 nM | CCC(c1ccc2c(cnn2-c2ccc(F)cc2)c1)C(C)(C)CNC(=O)NC(C)(C)C (stereo not drawn) [Example 101, 1-tert-butyl-3-(3-(1-(4-fluorophenyl)-1H-indazol-5-yl)-2,2-dimethylpentyl)urea]
16 |  | 691 nM |  | 8.4 nM | CC(C)(C)NC(=O)NCC(C)(C)C(c1ccc2c(cnn2-c2ccc(F)cc2)c1)C1CC1 (stereo not drawn) [Example 102, 1-tert-butyl-3-(3-cyclopropyl-3-(1-(4-fluorophenyl)-1H-indazol-5-yl)-2,2-dimethylpropyl)urea]
17 |  | 349 nM |  | 5.9 nM | CC(C)C(c1ccc2c(cnn2-c2ccc(F)cc2)c1)C(C)(C)CNC(=O)NC(C)(C)C (stereo not drawn) [Example 103, 1-tert-butyl-3-(3-(1-(4-fluorophenyl)-1H-indazol-5-yl)-2,2,4-trimethylpentyl)urea]
18 |  | 23 nM |  | 2.1 nM | CCCC(c1ccc2c(cnn2-c2ccc(F)cc2)c1)C(C)(C)CNC(=O)NC(C)(C)C (stereo not drawn) [Example 104, 1-tert-butyl-3-(3-(1-(4-fluorophenyl)-1H-indazol-5-yl)-2,2-dimethylhexyl)urea]
19 |  | 77 nM |  | 1.7 nM | C=CCC(c1ccc2c(cnn2-c2ccc(F)cc2)c1)C(C)(C)CNC(=O)NC(C)(C)C (stereo not drawn) [Example 105, 1-tert-butyl-3-(3-(1-(4-fluorophenyl)-1H-indazol-5-yl)-2,2-dimethylhex-5-enyl)urea]
20 |  | 304 nM |  | 3.3 nM | CC(C)(C)NC(=O)NCC(C)(C)C(c1ccc2c(cnn2-c2ccc(F)cc2)c1)C1CCCC1 (stereo not drawn) [Example 106, 1-tert-butyl-3-(3-cyclopentyl-3-(1-(4-fluorophenyl)-1H-indazol-5-yl)-2,2-dimethylpropyl)urea]
21 |  | 2020 nM |  | 3.1 nM | CC(C)(C)NC(=O)NCC(C)(C)C(CCCO)c1ccc2c(cnn2-c2ccc(F)cc2)c1 (stereo not drawn) [Example 107, 1-tert-Butyl-3-(3-(1-(4-fluorophenyl)-1H-indazol-5-yl)-6-hydroxy-2,2-dimethylhexyl)urea]
22 |  | 8.1 nM |  | 1.7 nM | CC(C)(C)NC(=O)NCC(C)(C)C(CC1CC1)c1ccc2c(cnn2-c2ccc(F)cc2)c1 (stereo not drawn) [Example 108, 1-tert-Butyl-3-(4-cyclopropyl-3-(1-(4-fluorophenyl)-1H-indazol-5-yl)-2,2-dimethylbutyl)urea]
23 |  | > 10000 nM |  | 16 nM | CC(C)(CNC(=O)Nc1nccs1)C(C)(C)c1ccc2c(cnn2-c2ccc(F)cc2)c1 [Example 115, 1-(3-(1-(4-Fluorophenyl)-1H-indazol-5-yl)-2,2,3-trimethylbutyl)-3-(thiazol-2-yl)urea]
24 |  | > 10000 nM |  | 177 nM | CC(C)(CNC(=O)Nc1ccccn1)C(C)(C)c1ccc2c(cnn2-c2ccc(F)cc2)c1 [Example 116, 1-(3-(1-(4-fluorophenyl)-1H-indazol-5-yl)-2,2,3-trimethylbutyl)-3-(pyridin-2-yl)urea]
25 |  | > 10000 nM |  | 20 nM | CCNC(=O)NCC(C)(C)C(C)(C)c1ccc2c(cnn2-c2ccc(F)cc2)c1 [Example 117, 1-ethyl-3-(3-(1-(4-fluorophenyl)-1H-indazol-5-yl)-2,2,3-trimethylbutyl)urea]
26 |  | 2800 nM |  | 29 nM | CC(C)NC(=O)NCC(C)(C)C(C)(C)c1ccc2c(cnn2-c2ccc(F)cc2)c1 [Example 118, 1-(3-(1-(4-fluorophenyl)-1H-indazol-5-yl)-2,2,3-trimethylbutyl)-3-isopropylurea]
